From PMC13351859 (Biophysical Journal, 2026)

Molecular target: T1, LASV FD (Lassa virus fusion domain, G260-N295) (Lassa virus Josiah, UniProt P08669)
T1 construct: gene GPC
Assay: biochemical
Type: binding

T1 sequence (P08669 260-295 limits assumed): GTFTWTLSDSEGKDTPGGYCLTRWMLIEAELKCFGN

CCCCCCCC/C=C\CCCCCCCC(=O)O[C@H](COC(=O)CCCCCCCCCCCCCCC)COP(=O)([O-])OCC[N+](C)(C)C [POPC, 1-palmitoyl-2-oleoyl-glycero-3-phosphocholine]
Kd: 657 ± 17 µM
